Measurements as given in US4022834A, “Antibacterially active hexamethylene-bis-biguanides” (priority 1972, dated 1977).
Counter-ions that a name gives are not always drawn. Like-named read-outs stand apart in the source and are kept apart here.

Assays:
Aerobacter aerogenes = test: Inhibition of growth in aqueous solution and subcultivation in liquid medium, Aerobacter aerogenes; format: cell-based; conditions: Reference: Chlorohexidine=1
Source text: (§1) Inhibition of growth in aqueous solution and subcultivation in liquid medium. Reference: Chlorohexidine=1.

human epithelial cells = test: Cytotoxic effect on human epithelial cells in vitro; format: cell-based
Method: Cytotoxic effect on human epithelial cells in vitro after treatment for 5 minutes at 37° C. Reference: Chlorohexidine=1.

Staph. aureus = test: Inhibition of growth in aqueous solution and subcultivation in liquid medium, Staph. aureus; format: cell-based; conditions: Reference: Chlorohexidine=1
Source text: as §1

plaque [1] = test: Plaque-index on test persons after mouth rinsing; format: in vivo; conditions: rinsing with 10 ml of 1,1 mM solution 3 times daily for 3 days; scale 0 (no plaque) to 3 (clearly visible plaque marginally)
Method: Plaque-index on test persons after rinsing with 10 ml of 1,1 mM solution 3 times daily for 3 days. The rinsing was during this time the only type of oral hygiene used.
Plaque-index, which is a recognized measure of plaque-inhibiting property, runs from 0 (no plaque) to 3 (clearly visible plaque marginally).

plaque [2] = conditions: rinsing of the mouth; cited from earlier work
bacteria = conditions: cited from earlier work
plaque [3] = test: Plaque-index on test persons after mouth rinsing; format: in vivo; conditions: rinsing with 1,6 mM chlorohexidine under the same conditions; scale 0 to 3
[4] = Acute peroral toxicity in mice; conditions: mouse, in vivo, po
[5] = treatment for 5 minutes at 37° C., Reference: Chlorohexidine=1

Compound | Inhibition of growth relative to chlorohexidine (Aerobacter aerogenes) | Cytotoxic effect relative to chlorohexidine (human epithelial cells) | Inhibition of growth relative to chlorohexidine (Staph. aureus) | Plaque index (plaque [1]) | Effect against gingivitis and caries (in words) (plaque [2]) | Inhibition of plaque formation (in words) (plaque [2]) | Antibacterial activity (in words) (bacteria) | Plaque index (plaque [3]) | Cytotoxic effect relative to chlorohexidine (human epithelial cells; [5]) | Toxicity compared with chlorohexidine (in words) (human epithelial cells; human epithelial cells in vitro) | LD50 [4] [mg/kg]
N=C(NCCCCCCNC(=N)NC(=N)N1CC2CCC(CC2)C1)NC(=N)N1CC2CCC(CC2)C1 [Compound 2] | 1 | 1/8 | 1 | 0,58 |  |  |  |  |  |  | 
N=C(NCCCCCCNC(=N)NC(=N)Nc1ccc(Cl)cc1)NC(=N)Nc1ccc(Cl)cc1 [chlorohexidine, 1,1'-hexamethylene-bis-[5-(4-chlorophenyl)biguanide]] |  |  |  |  | prophylactic effect against gingivitis and caries | marked inhibiting effect on the formation of plaque | antibacterial effect | 0,75 |  |  | 
CC(C)CCC(C)NC(=N)NC(=N)NCCCCCCNC(=N)NC(=N)NC(C)CCC(C)C.Cl.Cl (stereo not shown) [Compound 8, 1,1'-hexamethylene-bis-[5-(1,4-dimethylpentyl)biguanide]-dihydrochloride] | 1 |  | 8 | 0,70 |  |  |  |  | 1 |  | 
CCCCC(CC)CNC(=N)NC(=N)NCCCCCCNC(=N)NC(=N)NCC(CC)CCCC (stereo not shown) [Compound 9, 1,1'-hexamethylene-bis-[5-(2-ethylhexyl)biguanide], reference compound] | 2 |  | 8 | 0,52 |  |  | known for having antibacterial activity |  | 4 | much more toxic | 
CCCCCC(C)NC(=N)NC(=N)NCCCCCCNC(=N)NC(=N)NC(C)CCCCC.Cl.Cl (stereo not shown) [Compound 6, 1,1'-hexamethylene-bis-[5-(1-methylhexyl)biguanide]-dihydrochloride] | 1 |  | 4 | 0,27 |  |  |  |  | 1 |  | 
N=C(NCCCCCCNC(=N)NC(=N)NC1CC2CCC1C2)NC(=N)NC1CC2CCC1C2 (stereo not shown) [Compound 5, 1,1'-hexamethylene-bis-[5-(2-endonorbornyl]biguanide)-dihydrochloride] | 1/8 |  | 1/2 | 0,50 |  |  |  |  | 1/8 |  | 
CCC(C)CC(C)NC(=N)NC(=N)NCCCCCCNC(=N)NC(=N)NC(C)CC(C)CC (stereo not shown) [Compound 7, 1,1'-hexamethylene-bis-[5-(1,3-dimethylpenthyl)-biguanide]-dihydrochloride] | 1 |  | 8 | 0,29 |  |  |  |  | 1 |  | 
N=C(NCCCCCCNC(=N)NC(=N)NCC1CCCCC1)NC(=N)NCC1CCCCC1 [Compound 3] | 8 |  | 2 | 0,19 |  |  |  |  | 1/2 |  | 
[H]/N=C(\N/C(=N/[H])NCCCCCCNC(=N)NC(=N)Nc1ccc(Cl)cc1)Nc1ccc(Cl)cc1 [Chlorohexidine-digluconate, reference compound] |  |  |  |  |  |  |  |  |  |  | 1800
CC(C)CCCC(C)NC(=N)NC(=N)NCCCCCCNC(=N)NC(=N)NC(C)CCCC(C)C (stereo not shown) [Compound 1, 1,1'-hexamethylene-bis-[5-(1,5-dimethylhexyl)biguanide]dihydrochloride] | 16 |  | 4 | 0,36 |  |  |  |  |  |  | 1690
N=C(NCCCCCCNC(=N)NC(=N)NC12CC3CC(CC(C3)C1)C2)NC(=N)NC12CC3CC(CC(C3)C1)C2 [Compound 4, 1,1'-hexamethylene-bis-[5-(1-adamantyl)biguanide]dihydrochloride] | 8 |  | 16 | 0,36 |  |  |  |  |  |  | 2830
